% of control, % activity and % of inhibition data for seven molecules are collected here from ChEMBL document CHEMBL5465560, “Selectivity Literature for EUbOPEN Chemogenomic Library” (2024).

For test [1], the target named is T1, Serine/threonine-protein kinase 3 (Homo sapiens) (UniProt Q13188).
T1 sequence (whole entry): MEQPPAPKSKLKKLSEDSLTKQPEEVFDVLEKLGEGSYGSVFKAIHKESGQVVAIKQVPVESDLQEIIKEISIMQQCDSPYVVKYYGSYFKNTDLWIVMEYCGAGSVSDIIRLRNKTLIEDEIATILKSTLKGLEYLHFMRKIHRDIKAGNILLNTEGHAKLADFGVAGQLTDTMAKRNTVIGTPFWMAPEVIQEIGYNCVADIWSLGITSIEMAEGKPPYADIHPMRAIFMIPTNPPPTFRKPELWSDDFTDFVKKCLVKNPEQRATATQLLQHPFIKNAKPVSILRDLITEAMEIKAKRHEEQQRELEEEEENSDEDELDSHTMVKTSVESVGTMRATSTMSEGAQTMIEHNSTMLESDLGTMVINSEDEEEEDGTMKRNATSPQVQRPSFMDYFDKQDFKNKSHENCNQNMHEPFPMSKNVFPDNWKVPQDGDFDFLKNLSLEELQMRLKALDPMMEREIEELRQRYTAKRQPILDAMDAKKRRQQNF
The test is described as follows: Selectivity interaction (Millipore kinase profiler) EUB0000124b STK3. The conditions noted are these: at 10 µM.

Test [2] addresses Histone-lysine N-methyltransferase KMT5C (Homo sapiens) (UniProt Q86Y97). The test is described as follows: Selectivity interaction (Methyltransferase screen (Scintillation proximity assays)) EUB0000255b SUV420H2.
Test [3] deals with T2, Serine/threonine-protein kinase LATS2 (Homo sapiens) (UniProt Q9NRM7).
T2 sequence (whole entry): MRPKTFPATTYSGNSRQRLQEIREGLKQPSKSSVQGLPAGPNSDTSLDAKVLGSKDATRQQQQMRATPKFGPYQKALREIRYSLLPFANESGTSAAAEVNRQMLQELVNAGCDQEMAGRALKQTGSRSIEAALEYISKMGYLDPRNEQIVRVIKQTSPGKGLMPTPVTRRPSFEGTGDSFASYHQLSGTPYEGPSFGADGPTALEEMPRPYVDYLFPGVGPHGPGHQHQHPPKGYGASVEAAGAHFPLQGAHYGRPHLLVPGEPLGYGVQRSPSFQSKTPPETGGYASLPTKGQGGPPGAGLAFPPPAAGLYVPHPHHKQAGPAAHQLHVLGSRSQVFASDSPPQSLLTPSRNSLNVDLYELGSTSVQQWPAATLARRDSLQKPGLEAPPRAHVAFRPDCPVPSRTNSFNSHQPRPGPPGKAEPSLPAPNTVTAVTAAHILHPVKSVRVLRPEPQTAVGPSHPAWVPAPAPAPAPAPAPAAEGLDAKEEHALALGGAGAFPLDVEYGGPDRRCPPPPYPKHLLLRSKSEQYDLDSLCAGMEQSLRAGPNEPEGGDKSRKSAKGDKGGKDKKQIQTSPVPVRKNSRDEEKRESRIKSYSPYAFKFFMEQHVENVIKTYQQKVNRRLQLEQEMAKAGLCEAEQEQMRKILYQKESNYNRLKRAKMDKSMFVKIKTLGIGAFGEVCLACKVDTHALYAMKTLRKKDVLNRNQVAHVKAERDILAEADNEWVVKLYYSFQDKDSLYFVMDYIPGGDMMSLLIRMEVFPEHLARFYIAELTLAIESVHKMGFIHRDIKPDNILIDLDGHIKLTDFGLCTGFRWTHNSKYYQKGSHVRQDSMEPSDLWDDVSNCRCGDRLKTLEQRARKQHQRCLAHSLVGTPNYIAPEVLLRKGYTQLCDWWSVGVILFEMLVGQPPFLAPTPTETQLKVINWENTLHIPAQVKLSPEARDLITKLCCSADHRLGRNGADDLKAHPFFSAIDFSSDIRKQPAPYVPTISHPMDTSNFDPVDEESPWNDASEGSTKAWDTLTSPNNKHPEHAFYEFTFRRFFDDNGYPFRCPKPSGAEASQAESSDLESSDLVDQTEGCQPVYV
The test is described as follows: Selectivity interaction (KinomeScan (DiscoverX)) EUB0000655a LATS2. The conditions noted are these: at 10 µM.

The target in test [4] is Cyclin-dependent kinase 5 (Homo sapiens, UniProt Q00535). As to the kind of experiment: Selectivity interaction (ActivX KiNativ screen (kinase selectivity in THP-1 cell lysates)) EUB0000639a CDK5. It counts as subcellular. The conditions noted are these: lysate, at 1 µM.
Chain of Cyclin-dependent kinase 5 (Q00535 whole entry, looked up): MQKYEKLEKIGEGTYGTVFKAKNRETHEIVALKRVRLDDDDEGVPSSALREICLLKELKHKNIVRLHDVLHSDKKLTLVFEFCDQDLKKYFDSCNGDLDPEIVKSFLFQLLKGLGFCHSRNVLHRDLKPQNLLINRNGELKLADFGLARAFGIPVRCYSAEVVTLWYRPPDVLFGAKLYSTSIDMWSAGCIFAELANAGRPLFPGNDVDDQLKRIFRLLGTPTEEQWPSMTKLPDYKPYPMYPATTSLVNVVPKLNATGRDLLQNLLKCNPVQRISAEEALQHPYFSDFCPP
Test [5] deals with Protein kinase C eta type (Homo sapiens) (UniProt P24723). As to the kind of experiment: Selectivity interaction (KinomeScan (DiscoverX)) EUB0000595a PRKCH. The conditions noted are these: at 10 µM.
Chain of Protein kinase C eta type (Homo sapiens) (P24723 whole entry): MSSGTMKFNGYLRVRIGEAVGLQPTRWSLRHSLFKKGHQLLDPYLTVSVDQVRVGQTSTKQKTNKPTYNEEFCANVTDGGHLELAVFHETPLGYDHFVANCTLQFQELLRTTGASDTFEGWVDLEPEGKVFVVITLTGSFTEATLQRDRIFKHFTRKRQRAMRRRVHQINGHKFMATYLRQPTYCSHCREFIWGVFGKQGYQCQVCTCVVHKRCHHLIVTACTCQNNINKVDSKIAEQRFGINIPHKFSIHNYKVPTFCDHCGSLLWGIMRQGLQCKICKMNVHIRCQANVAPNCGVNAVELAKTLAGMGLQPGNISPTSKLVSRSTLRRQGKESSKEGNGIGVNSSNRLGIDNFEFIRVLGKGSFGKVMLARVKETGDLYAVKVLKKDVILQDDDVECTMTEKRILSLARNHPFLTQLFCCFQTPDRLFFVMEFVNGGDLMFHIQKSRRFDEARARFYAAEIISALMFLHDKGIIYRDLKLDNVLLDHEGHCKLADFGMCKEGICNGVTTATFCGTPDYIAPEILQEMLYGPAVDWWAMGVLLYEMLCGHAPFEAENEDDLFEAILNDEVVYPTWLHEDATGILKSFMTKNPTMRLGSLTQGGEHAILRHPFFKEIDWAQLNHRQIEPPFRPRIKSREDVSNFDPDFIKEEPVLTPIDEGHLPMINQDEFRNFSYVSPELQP
The target of test [6] is T3, Serine/threonine-protein kinase TBK1 (Homo sapiens) (UniProt Q9UHD2).
T3 sequence (whole entry): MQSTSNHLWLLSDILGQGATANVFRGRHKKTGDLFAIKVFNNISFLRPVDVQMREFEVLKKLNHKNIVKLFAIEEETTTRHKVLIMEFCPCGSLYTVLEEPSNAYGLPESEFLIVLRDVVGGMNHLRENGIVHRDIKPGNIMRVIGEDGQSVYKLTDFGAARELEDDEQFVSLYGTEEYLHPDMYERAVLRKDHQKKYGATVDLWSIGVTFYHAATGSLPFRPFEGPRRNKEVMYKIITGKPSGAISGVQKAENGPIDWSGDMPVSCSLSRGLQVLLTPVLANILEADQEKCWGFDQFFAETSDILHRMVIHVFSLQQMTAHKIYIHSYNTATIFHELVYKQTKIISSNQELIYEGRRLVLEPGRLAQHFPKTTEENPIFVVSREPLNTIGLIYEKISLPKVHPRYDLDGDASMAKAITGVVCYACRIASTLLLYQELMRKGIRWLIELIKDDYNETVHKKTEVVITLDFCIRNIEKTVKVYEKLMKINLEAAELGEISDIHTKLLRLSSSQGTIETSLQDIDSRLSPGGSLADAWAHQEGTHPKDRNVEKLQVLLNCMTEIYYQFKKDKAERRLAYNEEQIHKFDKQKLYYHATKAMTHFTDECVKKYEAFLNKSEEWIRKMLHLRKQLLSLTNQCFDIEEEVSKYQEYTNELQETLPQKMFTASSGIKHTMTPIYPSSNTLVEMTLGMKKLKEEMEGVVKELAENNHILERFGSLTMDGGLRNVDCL
As to the kind of experiment: Selectivity interaction (ActivX KiNativ screen (ex vivo kinase selectivity in human PBMCs)) EUB0001619a TBK1. It counts as cell-based. The settings on record: PBMC, at 1 µM.

Test [7] deals with Serine/threonine-protein kinase MARK1 (Homo sapiens) (UniProt Q9P0L2). The test is described as follows: Selectivity interaction (Kinase panel (literature)) EUB0001199aCl MARK1. The settings on record: at 1 µM.
Chain of Serine/threonine-protein kinase MARK1 (Homo sapiens) (Q9P0L2 whole entry, looked up): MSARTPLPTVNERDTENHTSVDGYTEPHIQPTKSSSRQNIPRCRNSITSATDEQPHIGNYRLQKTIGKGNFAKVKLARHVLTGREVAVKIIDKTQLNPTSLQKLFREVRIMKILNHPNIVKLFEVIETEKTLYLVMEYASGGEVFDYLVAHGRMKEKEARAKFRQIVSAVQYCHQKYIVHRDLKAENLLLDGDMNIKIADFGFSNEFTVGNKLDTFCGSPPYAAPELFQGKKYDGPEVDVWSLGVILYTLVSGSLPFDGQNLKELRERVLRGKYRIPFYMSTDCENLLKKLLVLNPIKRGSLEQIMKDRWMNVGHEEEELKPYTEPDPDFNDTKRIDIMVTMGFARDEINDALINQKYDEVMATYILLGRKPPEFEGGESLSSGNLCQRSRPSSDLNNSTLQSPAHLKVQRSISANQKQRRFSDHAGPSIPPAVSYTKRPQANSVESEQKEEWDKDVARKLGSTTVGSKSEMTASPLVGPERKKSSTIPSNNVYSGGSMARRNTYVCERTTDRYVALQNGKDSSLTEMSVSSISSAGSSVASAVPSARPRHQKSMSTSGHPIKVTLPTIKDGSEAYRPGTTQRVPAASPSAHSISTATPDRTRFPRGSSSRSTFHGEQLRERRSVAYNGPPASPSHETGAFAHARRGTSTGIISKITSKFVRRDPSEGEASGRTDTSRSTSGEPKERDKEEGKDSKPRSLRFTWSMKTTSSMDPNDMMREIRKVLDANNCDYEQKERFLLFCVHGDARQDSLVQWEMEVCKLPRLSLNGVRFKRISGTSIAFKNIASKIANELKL

Chain of Histone-lysine N-methyltransferase KMT5C (Homo sapiens) (Q86Y97 whole entry, looked up): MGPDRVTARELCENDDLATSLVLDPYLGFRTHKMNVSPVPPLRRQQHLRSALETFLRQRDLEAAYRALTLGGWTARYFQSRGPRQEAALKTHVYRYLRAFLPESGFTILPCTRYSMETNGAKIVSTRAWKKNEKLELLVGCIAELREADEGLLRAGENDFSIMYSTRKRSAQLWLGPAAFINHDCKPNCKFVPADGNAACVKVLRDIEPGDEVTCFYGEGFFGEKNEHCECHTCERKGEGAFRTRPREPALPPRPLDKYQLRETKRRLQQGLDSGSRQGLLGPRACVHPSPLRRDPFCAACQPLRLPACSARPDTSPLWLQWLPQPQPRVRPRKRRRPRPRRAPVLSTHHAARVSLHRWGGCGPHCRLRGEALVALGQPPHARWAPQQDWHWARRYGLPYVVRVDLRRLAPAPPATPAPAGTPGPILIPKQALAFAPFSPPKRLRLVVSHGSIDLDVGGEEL

In the case of `CC(=O)Nc1cccc(-n2c(=O)n(C3CC3)c(=O)c3c(Nc4ccc(I)cc4F)n(C)c(=O)c(C)c32)c1`, in test [1], the % of control was determined as 94%.
As for `COCCN1CCC(c2cc(CN(C)C(=O)c3cccc(Oc4ccccc4)c3)ccn2)CC1`, the % activity in test [2] (at 1 µM) is more than 95%; in test [2] (at 10 µM) it was more than 90%.
In test [3], `CN(C)CCOc1ccc(-c2nc(-c3ccncc3)c(-c3ccc4c(c3)CC/C4=N\O)[nH]2)cc1` gave a % of control of 45%.
As for `CC[C@@H]1[C@H](F)C(=O)N[C@@H]1COc1nccc2cc(C(N)=O)c(OC)cc12` [ZIMLOVISERTIB], in test [4], the % of inhibition is -3.5%.
With `COCC(=O)NC/C=C/c1ccc2ncnc(Nc3ccc(Oc4ccc(C)nc4)c(C)c3)c2c1` [CP-724714], in test [5], the % of control was 100%.
For the molecule `N#Cc1cccc(-c2c[nH]c3ncnc(N4CCOCC4)c23)c1`, the % of inhibition in test [6] came to 16%.
Regarding `CN1Cc2nccc(-c3cn(C)nc3-c3ccc(F)cc3)c2C1=O`, the % of inhibition in test [7] turned out to be 8%.
